Source: PMC8153121, “N-Alkylation of Anthracycline Antibiotics by Natural Sesquiterpene Lactones as a Way to Obtain Antitumor Agents with Reduced Side Effects” (Biomedicines, 2021)
Read-outs that look alike come from different tables or passages of the source.

Columns and labels:
[1] = biological target: T1, cytochrome-c-oxidase complex of the mitochondrial respiratory chain (IV) (Rattus norvegicus, UniProt P00406+P05503+P05505); experiment: Respiratory chain complex IV, OCR of isolated rat heart mitochondria (Seahorse); type: biochemical; details: isolated rat heart mitochondria 10 μg/well, compounds at 30 μM
T1 construct: Rat heart mitochondria were isolated by differential centrifugation; from tissue; host or cells: rat heart mitochondria
Protocol: (§1) Rat heart mitochondria were isolated by differential centrifugation using ice-cold buffer containing KCl (120 mM) and HEPES (20 mM), pH = 7.4, and a trypsin inhibitor. The mitochondrial yield ranged from 5 to 10 mg/mL of protein in the heart sediment. Mitochondria were stored in plastic containers at 4 °C.
(§2) The effect of the compounds on the functioning of the electron transport chain complexes was carried out using an Agilent Seahorse XF96e Analyzer (Seahorse Bioscience, Billerica, MA, USA) according to their ability to change the rate of oxygen uptake by isolated rat heart mitochondria (10 μg/well). The following modulators were used: activators of complex I of the electron transport chain, NADH dehydrogenase,—glutamate/malate; rotenone (2 μM) (Sigma Aldrich, Saint Louis, USA)—a tissue respiration blocker that stops the transfer of electrons from the reduced form of NADH to cytochrome b, was used as complex I inhibitor; potassium succinate ([…]) (Dia-M, Moscow, Russia), which is a substrate of complex II of the electron transport chain, made it possible to assess mitochondrial respiration mediated by succinate dehydrogenase; complex III (ubiquinol-cytochrome c-oxidoreductase) inhibitor—a blocker of cellular respiration antimycin A (Sigma Aldrich, Saint Louis, USA), as well as ascorbate/TMPD (0.5 μM) (Sigma Aldrich, Saint Louis, USA), allowed us to evaluate the cytochrome-c-oxidase mediated respiration of organelles.

[2] = tested on: HEK293 (embryonic kidney); experiment: MTT cell viability test, non-transformed HEK293; type: cell-based, Human; details: read-out: IC50, HEK293
Protocol: (§3) Human cell cultures of tumor origin (A549 (lung carcinoma), HCT116 (colon adenocarcinoma), MCF7 (breast cancer), RD (embryonic rhabdomyosarcoma)), and the line of non-transformed cells HEK293 (embryonic kidney) provided by the Laboratory of Tumor Cell Genetics at the N.N. Blokhin Russian Cancer Research Institute, as well as by the Institute of Cytology of the Russian Academy of Sciences, were grown in DMEM (Gibco, Scotland, UK) and MEM (Gibco, Scotland, UK) containing fetal calf serum (10% by volume) (ThermoFisher Scientific, Paisley, UK), L-glutamine (2 mM) (Gibco, Scotland, UK), and penicillin-streptomycin (1% by volume) (PanEco, Moscow, Russia).
(§4) Cellular viability was determined by the MTT test. […] After 24 h of incubation, various concentrations of the test compounds dissolved in DMSO (≤1%) were added to the cell cultures, the solvent was added to the control wells in an equal volume, and then the cells were cultured under the same conditions for 72 h. After the incubation time, MTT (3-(4,5-dimethylthiazol-2-yl)-2,5-diphenyltetrazolium bromide, 5 mg/mL) was added to each well, and the plates were further incubated for 2 h (until a characteristic color appeared). Then, the formazan granules were dissolved in DMSO.
(§5) Using a plate analyzer (Cytation3, BioTech Instruments Inc., USA), the optical density was determined at λ = 530 nm.

[3] = biological target: T2, complex II of the electron transport chain (Rattus norvegicus, UniProt P21913+Q641Z9+Q6PCT8+Q920L2); experiment: Respiratory chain complex II, OCR of isolated rat heart mitochondria (Seahorse); type: biochemical; details: isolated rat heart mitochondria 10 μg/well, compounds at 30 μM
T2 construct: Rat heart mitochondria were isolated by differential centrifugation; from tissue; host or cells: rat heart mitochondria
Protocol: as §1, §2

[4] = tested on: RD (embryonic rhabdomyosarcoma); experiment: MTT cell viability test, RD; type: cell-based, Human; details: 72 h, read-out: IC50, RD
Protocol: as §3, §4, §5

[5] = tested on: HCT116 (colon adenocarcinoma); experiment: MTT cell viability test, HCT116; type: cell-based, Human; details: read-out: IC50, HCT116
Protocol: as §3, §4, §5

MCF7 (breast cancer) = experiment: MTT cell viability test, MCF7; type: cell-based, Human; details: read-out: IC50, MCF7
Protocol: as §3, §4, §5

A549 (lung carcinoma) = experiment: MTT cell viability test, A549; type: cell-based, Human; details: read-out: IC50, A549
Protocol: as §3, §4, §5

rat heart mitochondria = experiment: Mitochondrial swelling; type: biochemical; details: rat heart mitochondria 0.5 mg/mL, compounds at 100 μM, Ca2+ 25 μM
Protocol: as §1
Mitochondrial swelling was recorded by the light transmission of the rat heart mitochondrial suspension at λ = 540 nm using a Victor 3 plate analyzer (Perkin Elmer, Germany). The swelling rate was estimated as △A540/min and was calculated as the tangent of the angle of the steepest dependence curve part △A540 versus time.

[6] = MTT, 72 h, non-transformed cells

T2 sequence (Q920L2 35-656): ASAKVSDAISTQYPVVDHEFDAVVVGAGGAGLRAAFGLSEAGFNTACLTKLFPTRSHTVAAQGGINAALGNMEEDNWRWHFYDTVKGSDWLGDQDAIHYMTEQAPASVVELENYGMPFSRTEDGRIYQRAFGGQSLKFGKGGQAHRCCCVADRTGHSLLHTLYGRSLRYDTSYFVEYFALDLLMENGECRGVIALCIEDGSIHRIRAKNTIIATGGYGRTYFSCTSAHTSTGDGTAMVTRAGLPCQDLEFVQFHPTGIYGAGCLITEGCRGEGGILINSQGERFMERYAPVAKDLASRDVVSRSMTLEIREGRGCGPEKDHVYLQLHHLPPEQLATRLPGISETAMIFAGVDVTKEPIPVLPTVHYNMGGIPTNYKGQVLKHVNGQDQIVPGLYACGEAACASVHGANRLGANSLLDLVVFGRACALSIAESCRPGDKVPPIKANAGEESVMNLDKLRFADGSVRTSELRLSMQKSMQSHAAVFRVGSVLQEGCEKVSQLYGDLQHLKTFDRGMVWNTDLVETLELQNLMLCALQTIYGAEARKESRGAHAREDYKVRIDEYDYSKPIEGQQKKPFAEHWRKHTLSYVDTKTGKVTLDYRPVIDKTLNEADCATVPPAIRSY
T2 sequence (P21913 31-282): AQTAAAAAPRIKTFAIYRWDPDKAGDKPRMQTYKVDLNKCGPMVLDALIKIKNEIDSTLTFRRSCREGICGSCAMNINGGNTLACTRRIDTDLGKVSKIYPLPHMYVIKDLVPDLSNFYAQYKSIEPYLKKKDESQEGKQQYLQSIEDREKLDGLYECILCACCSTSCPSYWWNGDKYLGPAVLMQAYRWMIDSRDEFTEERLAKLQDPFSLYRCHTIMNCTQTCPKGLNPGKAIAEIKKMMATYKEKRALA
T2 sequence (Q641Z9 30-169 limits assumed): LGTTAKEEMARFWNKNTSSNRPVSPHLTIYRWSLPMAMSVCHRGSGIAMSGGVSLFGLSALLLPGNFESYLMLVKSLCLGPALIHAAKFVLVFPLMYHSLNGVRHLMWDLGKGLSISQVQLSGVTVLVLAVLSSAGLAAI
T2 sequence (Q6PCT8 57-159): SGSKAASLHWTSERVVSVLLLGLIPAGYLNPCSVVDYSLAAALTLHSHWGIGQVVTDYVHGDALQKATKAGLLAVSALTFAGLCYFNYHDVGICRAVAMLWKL
T1 sequence (P00406 whole entry, other chains not shown): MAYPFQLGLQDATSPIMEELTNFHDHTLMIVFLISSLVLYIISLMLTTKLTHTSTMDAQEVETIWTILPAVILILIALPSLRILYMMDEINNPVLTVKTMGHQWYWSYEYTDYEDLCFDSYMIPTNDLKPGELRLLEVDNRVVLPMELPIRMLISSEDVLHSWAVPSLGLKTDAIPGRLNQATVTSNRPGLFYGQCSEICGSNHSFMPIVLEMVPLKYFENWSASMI
T1 sequence (P05505 whole entry, other chains not shown): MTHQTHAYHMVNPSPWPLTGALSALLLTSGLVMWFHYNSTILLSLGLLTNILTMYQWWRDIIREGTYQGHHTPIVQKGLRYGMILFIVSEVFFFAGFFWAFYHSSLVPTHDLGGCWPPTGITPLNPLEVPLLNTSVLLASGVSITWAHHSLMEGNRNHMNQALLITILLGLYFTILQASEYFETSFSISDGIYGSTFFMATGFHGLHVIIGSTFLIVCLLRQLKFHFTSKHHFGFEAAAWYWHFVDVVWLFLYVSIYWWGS

| Work of Respiratory Chain Complexes, % Decrease in OCR of Control, IV [1] | IC50 ([5]; MTT, 72 h) | IC50 (MCF7 (breast cancer); MTT, 72 h) | IC50 (A549 (lung carcinoma); MTT, 72 h) | Structure (SMILES) | IC50 [2, 6] | Work of Respiratory Chain Complexes, % Decrease in OCR of Control, II [3] | IC50 ([4]; MTT) | Mitochondrial Swelling, % of Ca2+-Induced Swelling (rat heart mitochondria) | other results |
| --- | --- | --- | --- | --- | --- | --- | --- | --- | --- |
| 21.56 ± 3.66% | 1300 ± 20 nM | 1840 ± 60 nM | 1190 ± 20 nM | COc1cccc2c1C(=O)c1c(O)c3c(c(O)c1C2=O)CC(O)(C(C)=O)CC3OC1CC(NCC2C(=O)OC3CC4(C)CCCC(C)C45OC5C32)C(O)C(C)O1 (stereo not shown) [Compound 5b] | 18190 ± 180 nM | — (“—” indicates activity absence for compounds (≤10%) in a particular test) | 800 nM | — (“—” indicates activity absence for compounds (≤10%) in a particular test) |  |
|  |  |  |  | COc1cccc2c1C(=O)c1c(O)c3c(c(O)c1C2=O)C[C@@](O)(C(C)=O)C[C@@H]3O[C@H]1C[C@H](NC[C@H]2C(=O)O[C@@H]3C[C@@]4(C)CCC=C(C)C4=C[C@@H]32)[C@H](O)[C@H](C)O1 |  |  |  |  | melting point: 152 to 158 °C |
|  |  |  |  | C=C1C(=O)O[C@@H]2C[C@@]3(C)CCC=C(C)C3=C[C@H]12 [Compound 8, alanthodiene, reference compound] |  |  |  |  | IC50 ([2]; Homo sapiens, HEK293, 72 h): 9070 ± 250 nM; IC50 ([4]; Homo sapiens): 4940 ± 90 nM; IC50 ([5]; Homo sapiens, HCT-116, 72 h): 4990 ± 60 nM; IC50 (MCF7 (breast cancer); Homo sapiens, MCF7, 72 h): 4310 ± 20 nM; IC50 (A549 (lung carcinoma); Homo sapiens, A549, 72 h): 59900 ± 2260 nM |
| 24.52 ± 7.61% | 2810 ± 50 nM | 11100 ± 170 nM | 2210 ± 60 nM | C=C1CCCC2(C)CC3OC(=O)C(CNC4CC(OC5CC(O)(C(=O)CO)Cc6c(O)c7c(c(O)c65)C(=O)c5c(OC)cccc5C7=O)OC(C)C4O)C3CC12 (stereo not shown) [Compound 1a] | 19800 ± 420 nM | 27.61 ± 5.71% | 2410 ± 30 nM | — (“—” indicates activity absence for compounds (≤10%) in a particular test) |  |
| 40.50 ± 4.05% | 250 ± 40 nM | 2940 ± 20 nM | 880 ± 110 nM | COc1cccc2c1C(=O)c1c(O)c3c(c(O)c1C2=O)CC(O)(C(=O)CO)CC3OC1CC(NCC2C(=O)OC3CC4(C)CCCC5(C)OC45CC32)C(O)C(C)O1 (mixture of isomers) [Compound 6a] | 980 ± 230 nM |  | 1180 ± 10 nM | 54.22 ± 5.49% |  |
|  |  |  |  | C=C1CCC[C@]2(C)C[C@H]3OC(=O)C(=C)[C@H]3CC12 (stereo partly shown) [Compound 1, isoalantholactone, reference compound] |  |  |  |  | IC50 ([2]; Homo sapiens, HEK293, 72 h, MTT, 72 h, non-transformed cells): 74030 ± 510 nM; IC50 ([4]; Homo sapiens, MTT): 10400 ± 790 nM; IC50 ([5]; Homo sapiens, HCT-116, 72 h, MTT, 72 h): 11300 ± 270 nM; IC50 (MCF7 (breast cancer); Homo sapiens, MCF7, 72 h, MTT, 72 h): 17500 ± 600 nM; IC50 (A549 (lung carcinoma); Homo sapiens, A549, 72 h, MTT, 72 h): 32000 ± 3240 nM |

| Structure (SMILES) | Work of Respiratory Chain Complexes, % Decrease in OCR of Control, IV [1] | IC50 ([5]; MTT, 72 h) | IC50 (MCF7 (breast cancer); MTT, 72 h) | IC50 (A549 (lung carcinoma); MTT, 72 h) | IC50 [2, 6] | Work of Respiratory Chain Complexes, % Decrease in OCR of Control, II [3] | IC50 ([4]; MTT) | Mitochondrial Swelling, % of Ca2+-Induced Swelling (rat heart mitochondria) | other results |
| --- | --- | --- | --- | --- | --- | --- | --- | --- | --- |
| COc1cccc2c1C(=O)c1c(O)c3c(c(O)c1C2=O)C[C@@](O)(C(=O)CO)C[C@@H]3O[C@H]1C[C@H](NC[C@H]2C(=O)O[C@@H]3C[C@@]4(C)CCC=C(C)C4=C[C@@H]32)[C@H](O)[C@H](C)O1 [Compound 8a, (8S,10S)-10-(((2R,4S,5S,6S)-4-((((3S,3aR,8aR,9aR)-5,8a-Dimethyl-2-oxo-2,3,3a,7,8,8a,9,9a-octahydronaphtho[2,3-b]furan-3-yl)methyl)amino)-5-hydroxy-6-methyltetrahydro-2H-pyran-2-yl)oxy)-6,8,11-trihydroxy-8-(2-hydroxyacetyl)-1-methoxy-7,8,9,10-tetrahydrotetracene-5,12-dione] | 25.95 ± 4.43% |  |  |  |  | 27.58 ± 4.30% |  | 47.84 ± 4.99% | melting point: 166 to 170 °C; IC50 ([2]; Homo sapiens, HEK293, 72 h): 16400 ± 1070 nM; IC50 ([4]; Homo sapiens): 1030 ± 20 nM; IC50 ([5]; Homo sapiens, HCT-116, 72 h): 430 ± 20 nM; IC50 (MCF7 (breast cancer); Homo sapiens, MCF7, 72 h): 2340 ± 10 nM; IC50 (A549 (lung carcinoma); Homo sapiens, A549, 72 h): 1870 ± 70 nM |
